In this experiment the target is T1, BRM (Homo sapiens, UniProt P51531).
T1 construct: In-Cell Western Screen of BRM Degradation in SW1573 Cells; endogenous in cells; host or cells: SW1573
As to the kind of experiment: In-cell Western screen of BRM degradation in SW1573 cells (Dmax and DC50). The experiment is classed as cell-based. Conditions: BRM degradation, SW1573 cells; for DC50: read-out: DC50; for Dmax: tested at the top concentration of between 0.3 and 10 μM, read-out: Dmax (%) (% degraded). Summed up: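 After adhering overnight, cells received compound for 18-20 hours. They were then washed in cold DPBS, fixed with 4% PFA for 20 min and permeabilized for 30 min. Blocking and fluorescent secondary staining followed before imaging.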

Molecules are shown by their SMILES. A value given as a limit tells only on which side of the number the result lay.

T1 sequence (P51531 whole entry): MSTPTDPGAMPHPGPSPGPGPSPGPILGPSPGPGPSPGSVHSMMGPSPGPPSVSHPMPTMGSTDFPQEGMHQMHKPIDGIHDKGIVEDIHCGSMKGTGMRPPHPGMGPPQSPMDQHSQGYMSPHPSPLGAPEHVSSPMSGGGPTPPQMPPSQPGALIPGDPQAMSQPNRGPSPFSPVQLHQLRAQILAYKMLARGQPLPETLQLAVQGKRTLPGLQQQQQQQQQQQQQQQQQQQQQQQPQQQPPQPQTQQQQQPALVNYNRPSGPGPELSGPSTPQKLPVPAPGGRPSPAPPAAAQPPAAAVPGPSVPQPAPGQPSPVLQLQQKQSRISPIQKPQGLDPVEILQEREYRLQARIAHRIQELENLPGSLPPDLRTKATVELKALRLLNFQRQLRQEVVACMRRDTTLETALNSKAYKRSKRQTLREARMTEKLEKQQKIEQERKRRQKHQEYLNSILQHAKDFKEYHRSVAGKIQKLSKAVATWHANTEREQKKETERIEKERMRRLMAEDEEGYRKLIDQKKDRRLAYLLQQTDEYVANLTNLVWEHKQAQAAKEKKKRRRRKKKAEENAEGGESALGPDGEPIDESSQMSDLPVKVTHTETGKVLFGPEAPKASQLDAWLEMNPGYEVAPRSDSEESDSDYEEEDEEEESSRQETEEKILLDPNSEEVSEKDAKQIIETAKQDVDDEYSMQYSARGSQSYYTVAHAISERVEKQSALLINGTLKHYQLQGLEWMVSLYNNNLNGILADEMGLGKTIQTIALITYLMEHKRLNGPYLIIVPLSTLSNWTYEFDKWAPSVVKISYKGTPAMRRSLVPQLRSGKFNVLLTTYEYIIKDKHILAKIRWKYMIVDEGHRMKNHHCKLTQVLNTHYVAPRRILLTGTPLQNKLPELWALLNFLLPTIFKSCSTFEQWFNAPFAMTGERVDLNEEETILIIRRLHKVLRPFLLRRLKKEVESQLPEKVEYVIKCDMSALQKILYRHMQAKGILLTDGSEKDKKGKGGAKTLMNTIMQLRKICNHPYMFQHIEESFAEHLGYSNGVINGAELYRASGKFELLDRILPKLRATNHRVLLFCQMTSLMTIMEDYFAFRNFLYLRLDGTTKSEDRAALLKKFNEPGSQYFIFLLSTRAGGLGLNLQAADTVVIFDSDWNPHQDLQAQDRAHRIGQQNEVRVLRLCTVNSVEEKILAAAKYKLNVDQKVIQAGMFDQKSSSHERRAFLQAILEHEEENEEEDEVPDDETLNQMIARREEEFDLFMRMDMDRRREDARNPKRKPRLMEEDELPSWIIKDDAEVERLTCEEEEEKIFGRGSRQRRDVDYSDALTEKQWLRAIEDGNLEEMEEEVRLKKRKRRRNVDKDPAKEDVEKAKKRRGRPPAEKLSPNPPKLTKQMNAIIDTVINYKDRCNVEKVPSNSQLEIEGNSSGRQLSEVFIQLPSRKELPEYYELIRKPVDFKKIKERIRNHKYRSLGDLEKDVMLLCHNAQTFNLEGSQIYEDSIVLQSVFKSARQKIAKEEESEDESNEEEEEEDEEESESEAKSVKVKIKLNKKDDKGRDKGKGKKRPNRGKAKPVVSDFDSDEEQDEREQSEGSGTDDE

As for `COc1nc(-c2scnc2C)ccc1[C@H](C)NC(=O)[C@@H]1C[C@@H](O)CN1C(=O)[C@H](c1cc(OCCN2CCC(O[C@H]3C[C@H](Oc4cc(N5C6CCC5CN(c5cc(-c7ccccc7O)nnc5N)C6)ccn4)C3)CC2)no1)C(C)C` [compound 278, (2S,4R)-1-((2S)-2-(3-(2-(4-((1r,3S)-3-((4-(3-(3-amino-6-(2-hydroxyphenyl)pyridazin-4-yl)-3,8-diazabicyclo[3.2.1]octan-8-yl)pyridin-2-yl)oxy)cyclobutoxy)piperidin-1-yl)ethoxy)isoxazol-5-yl)-3-methylbutanoyl)-4-hydroxy-N-((S)-1-(2-methoxy-6-(4-methylthiazol-5-yl)pyridin-3-yl)ethyl)pyrrolidine-2-carboxamide], the DC50 (commonly the concentration giving 50% degradation) was more than 30 nM.

For `COc1nc(-c2scnc2C)ccc1[C@H](C)NC(=O)[C@@H]1C[C@@H](O)CN1C(=O)[C@@H](c1cc(OCCN2CCC(O[C@H]3C[C@H](Oc4cc(N5C6CCC5CN(c5cc(-c7ccccc7O)nnc5N)C6)ccn4)C3)CC2)no1)C(C)C` [compound 279, (2S,4R)-1-((2R)-2-(3-(2-(4-((1r,3R)-3-((4-(3-(3-amino-6-(2-hydroxyphenyl)pyridazin-4-yl)-3,8-diazabicyclo[3.2.1]octan-8-yl)pyridin-2-yl)oxy)cyclobutoxy)piperidin-1-yl)ethoxy)isoxazol-5-yl)-3-methylbutanoyl)-4-hydroxy-N-((S)-1-(2-methoxy-6-(4-methylthiazol-5-yl)pyridin-3-yl)ethyl)pyrrolidine-2-carboxamide], the DC50 was less than 2.5 nM and the Dmax (commonly the greatest extent of degradation seen) was more than 75%.

For `Cc1ncsc1-c1ccc([C@H](CN(C)C)NC(=O)[C@@H]2C[C@@H](O)CN2C(=O)[C@H](c2cc(OCCN3CCN(CCOc4cc(N5C6CCC5CN(c5cc(-c7ccccc7O)nnc5N)C6)ccn4)CC3)no2)C(C)C)cc1` [compound 280, (2S,4R)-1-((2S)-2-(3-(2-(4-(2-((4-(3-(3-amino-6-(2-hydroxyphenyl)pyridazin-4-yl)-3,8-diazabicyclo[3.2.1]octan-8-yl)pyridin-2-yl)oxy)ethyl)piperazin-1-yl)ethoxy)isoxazol-5-yl)-3-methylbutanoyl)-N-((R)-2-(dimethylamino)-1-(4-(4-methylthiazol-5-yl)phenyl)ethyl)-4-hydroxypyrrolidine-2-carboxamide], the DC50 is more than 30 nM.

Consider `Cc1ncsc1-c1ccc([C@H](CN(C)C)NC(=O)[C@@H]2C[C@@H](O)CN2C(=O)[C@@H](c2cc(OCCN3CCN(CCOc4cc(N5C6CCC5CN(c5cc(-c7ccccc7O)nnc5N)C6)ccn4)CC3)no2)C(C)C)cc1` [compound 281, (2S,4R)-1-((2R)-2-(3-(2-(4-(2-((4-(3-(3-amino-6-(2-hydroxyphenyl)pyridazin-4-yl)-3,8-diazabicyclo[3.2.1]octan-8-yl)pyridin-2-yl)oxy)ethyl)piperazin-1-yl)ethoxy)isoxazol-5-yl)-3-methylbutanoyl)-N-((R)-2-(dimethylamino)-1-(4-(4-methylthiazol-5-yl)phenyl)ethyl)-4-hydroxypyrrolidine-2-carboxamide], for which the DC50 is less than 2.5 nM and the Dmax is more than 75%.

Turning to `CC(C)[C@@H](C(=O)N1C[C@H](O)C[C@H]1C(=O)N[C@@H](C)c1ccc(-c2c(Cl)cnn2C)cc1)c1cc(OCCN2CCN(CCOc3cc(N4C5CCC4CN(c4cc(-c6ccccc6O)nnc4N)C5)ccn3)CC2)no1` [compound 283, (2S,4R)-1-((2R)-2-(3-(2-(4-(2-((4-(3-(3-amino-6-(2-hydroxyphenyl)pyridazin-4-yl)-3,8-diazabicyclo[3.2.1]octan-8-yl)pyridin-2-yl)oxy)ethyl)piperazin-1-yl)ethoxy)isoxazol-5-yl)-3-methylbutanoyl)-N-((S)-1-(4-(4-chloro-1-methyl-1H-pyrazol-5-yl)phenyl)ethyl)-4-hydroxypyrrolidine-2-carboxamide], the DC50 is less than 2.5 nM and the Dmax is more than 75%.
